Earlier results, collected in patent publication US20250161389A1, “Herbal composition for the treatment of malaria” (RNA Therapeutics, Inc., priority 2023, published 2025).

System: Plasmodium
Details: isolated compound, best activity

Q: Which IC50 does the source give for `C=C(C)[C@@H]1CC[C@@]2(C)[C@H]1[C@@H]1CC[C@@H]3[C@@]4(C)CCC(=O)C(C)(C)[C@@H]4[C@H](O)C[C@@]3(C)[C@]1(C)C[C@@H]2O` [resinone (39), resinone] here?
A: < 1 µg/mL
